Source: PubChem BioAssay (NCI)
Values joined by “and” are separate entries in the source; they are usually repeats but may differ in a detail not shown here. Equal entries are not always repeated.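 Briefly, cells in 96-well plates were exposed to five compound concentrations for 48 h, and endpoints were estimated by linear interpolation. GI50 marks 50% less growth. TGI: concentration producing complete growth inhibition.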

What was measured:
Experiment in all cases: NCI anticancer screen, dose series, 48 h
NCI-H460 lung = test system: NCI-H460 lung
SF-295 CNS = test system: SF-295 CNS
SF-268 CNS = test system: SF-268 CNS
EKVX NSCLC = test system: EKVX NSCLC
HCC-2998 colon = test system: HCC-2998 colon
COLO 205 colon = test system: COLO 205 colon
RPMI-8226 leukemia = test system: RPMI-8226 leukemia
HL-60(TB) leukemia = test system: HL-60(TB) leukemia
NCI-H522 lung = test system: NCI-H522 lung
U251 CNS = test system: U251 CNS
NCI-H23 lung = test system: NCI-H23 lung
SNB-19 CNS = test system: SNB-19 CNS
UO-31 renal = test system: UO-31 renal

Compound | TGI (NCI-H460 lung) [µM] | TGI (SF-295 CNS) | TGI (SF-268 CNS) | TGI (EKVX NSCLC) | TGI (HCC-2998 colon) [µM] | TGI (COLO 205 colon) [µM] | TGI (RPMI-8226 leukemia) [µM] | TGI (HL-60(TB) leukemia) | TGI (NCI-H522 lung) | TGI (U251 CNS) | TGI (NCI-H23 lung) [µM] | TGI (SNB-19 CNS) | TGI (UO-31 renal) | GI50 (NCI-H460 lung) | GI50 (SF-295 CNS) | GI50 (SF-268 CNS) | GI50 (RPMI-8226 leukemia)
FC(F)(F)c1ccc2c(c1)N(CCCNCCN1CCOCC1)c1ccccc1S2 | 38.5 | 27.4 µM | 37.2 µM | 29.4 µM | 4.06 | 6.84 | 28.9 | 22.2 µM | 30.6 µM | 23.7 µM | 24.7 | 30.1 µM | 17.5 µM | – | – | – | –
Cc1c(O)c(=O)ccn1CCN | > 100 | – | > 100 µM | > 100 µM | > 100 | > 100 | > 100 | – | > 100 µM | > 100 µM | > 100 | > 100 µM | > 100 µM | – | – | – | –
CC(CSC(=N)N)C(N)=O (stereo not drawn) | > 100 | > 100 µM | > 100 µM | > 100 µM | > 100 | > 100 | > 100 | > 100 µM | > 100 µM | > 100 µM | > 100 | > 100 µM | > 100 µM | – | – | – | –
S=c1sc2c(s1)SC(c1ccccc1)CS2 (stereo not drawn) | > 100 | > 100 µM | > 100 µM | > 100 µM | > 100 | > 100 | > 100 | > 100 µM | > 100 µM | > 100 µM | > 100 | > 100 µM | > 100 µM | – | – | – | –
COc1ccccc1/C=C(/C)[N+](=O)[O-] | – | 20 µM and 6.33 µM | 30.4 µM and 4.94 µM | 20.1 µM and 12.3 µM | – | 10.3 | – | 4.21 µM and 5.4 µM | 2.91 µM and 3.2 µM | 4.19 µM and 3.43 µM | 5.81 | 15.1 µM and 5.77 µM | 3.36 µM and 3.39 µM | 4.07 µM and 1.94 µM | 5.31 µM and 2.53 µM | 5.87 µM and 2.18 µM | 0.282 µM and 0.608 µM
Brc1ccc(C2C3CSc4ccccc4C3=NN2c2ccccc2)cc1 (stereo not drawn) | > 100 | – | > 100 µM | – | – | > 100 | > 100 | > 100 µM | – | > 100 µM | > 100 | > 100 µM | > 100 µM | – | – | – | –
O=C(NN1C(=O)C(Cl)C1c1ccccc1O)c1ccccc1O (stereo not drawn) | > 100 | > 100 µM | > 100 µM | > 100 µM | – | > 100 | > 100 | 43.3 µM | > 100 µM | > 100 µM | > 100 | 57.9 µM | 63.8 µM | – | – | – | –
COc1cc(OC2OC(CO)C(O)C(O)C2O)c2c(O)c3c(=O)cc(C)oc3cc2c1 (stereo not drawn) | > 100 | > 100 µM | > 100 µM | > 100 µM | > 100 | > 100 | > 100 | > 100 µM | > 100 µM | > 100 µM | > 100 | > 100 µM | > 100 µM | – | – | – | –
Cc1ccc(/C=C2\Sc3scc(-c4ccccc4)[n+]3C2=O)cc1 | 42.4 | > 70.3 µM | 45.5 µM | > 58.5 µM | 75 | 52.4 | 35.4 | 5.31 µM | 19.6 µM | 47.5 µM | 46.4 | > 72 µM | 32 µM | – | – | – | –
OCC#CCNCl | > 100 | > 100 µM | > 100 µM | > 100 µM | > 100 | > 100 | > 100 | > 100 µM | > 100 µM | > 100 µM | > 100 | > 100 µM | > 100 µM | – | – | – | –
CC(C)(O)/C1=C/C=C/CCCCCCCCCC1 | > 100 | > 100 µM | > 100 µM | > 100 µM | > 100 | > 100 | > 100 | 98.6 µM | > 100 µM | > 100 µM | > 100 | > 100 µM | > 100 µM | – | – | – | –
O=[N+]([O-])C(=C/c1ccccc1)/C(=C\c1ccccc1)[N+](=O)[O-] | 33 | 36.2 µM | 50 µM | 34 µM | 36 | 40 | 48.4 | – | – | 29 µM | 31.1 | 33.4 µM | 31.3 µM | – | – | – | –
